Key:
CML cells = experiment: Long term culture-initiating cell (LTC-IC) assay; assay type: cell-based, human; conditions: drug during first week of 6-week culture, vs untreated
Experimental: (§1) Long term culture-initiating cell (LTC-IC) and Colony-forming cell (CFC)/replating assays. 2×10^6 mononuclear CML cells were cultured with a 1:1 mixture of irradiated (80 Gy) IL-3/G-CSF-producing M2-10B4 and IL-3/KL-producing SI/SI murine fibroblasts in MyeloCult H5100 (StemCell Technologies) supplemented with hydrocortisone. Drugs were present during the first week of culture. Medium was replaced after 7 days, followed by weekly half-medium changes. After 6 weeks, adherent and floating cells were harvested and 5×10^4 cells plated into MethoCult H4435. LTC-IC-derived colonies were scored after 14 days. For CFC/replating, individual 14-day colonies from 10^3-10^5 CD34+/CD38− CML or 0.2×10^3-10^3 leukemic LSK cells plated in 0.9% H4435 or M3234 MethoCult, respectively, containing KL, G-CSF, GM-CSF, IL-3, IL-6, and Epo were replated and scored 2 weeks later.

[1] = test system: CFSE^max/CD34^+ NBM cells; experiment: CFSE-mediated tracking of quiescent cells, normal bone marrow; assay type: cell-based, human
Experimental: (§2) CFSE-mediated tracking of cell division. Carboxyfluorescein diacetate succinimidyl diester (CFSE)-stained cells (CellTrace CFSE Proliferation Kit: Invitrogen) were cultured in the presence of the indicated drugs (dosed at time zero and at day three), and the cells were harvested after 3 or 6 days in culture, and stained with anti-CD34 PE, Annexin-V V450, and the viability stain 7-AAD (BD Bioscience) to determine the number of viable quiescent cells (CFSEmax/CD34^+/7-AAD− cells) and the percentage of quiescent and apoptosis-committed cells (CFSEmax/CD34+/Annexin V+/7-AAD±). Cells were sorted into dividing and quiescent populations for Western blot analysis. For assessment of mouse quiescent leukemic HSCs, Lin- cells from 8 week-induced SCLtTA/BCR-ABL1 mice were CFSE-stained and used as described above. Quiescent cells (CFSE^max/CD34^+) were reported as a fraction of the initial number of CD34^+ cells.

[2] = test system: β-catenin-driven (LEF/TCF) transcriptional activity; experiment: LEF/TCF reporter assay; assay type: cell-based, human; conditions: CD34^+/CD38^− CML and 32D-BCR/ABL cells
Experimental: LEF/TCF reporter assay. CD34+/CD38− CML cells were transduced with pBAR or pfuBAR (negative control) ®-catenin lentiviral reporter constructs (54), puromycin-selected and treated with the indicated drugs. Luciferase was measured using the Bright-Glo Luciferase system (Promega).

SET-PP2A interaction = biological target: T1, SET-PP2A interaction (Homo sapiens, UniProt Q01105); experiment: Proximity ligation assay, SET-PP2A association; assay type: cell-based; conditions: CD34^+/CD38^− CML cells, 24 h
T1 construct: untreated and FTY720-treated (24 h) CD34^+/CD38^− CML cells; endogenous in cells; host or cells: CD34+/CD38- CML patient cells
T1 sequence (Q01105 1-277 isoform Q01105-2): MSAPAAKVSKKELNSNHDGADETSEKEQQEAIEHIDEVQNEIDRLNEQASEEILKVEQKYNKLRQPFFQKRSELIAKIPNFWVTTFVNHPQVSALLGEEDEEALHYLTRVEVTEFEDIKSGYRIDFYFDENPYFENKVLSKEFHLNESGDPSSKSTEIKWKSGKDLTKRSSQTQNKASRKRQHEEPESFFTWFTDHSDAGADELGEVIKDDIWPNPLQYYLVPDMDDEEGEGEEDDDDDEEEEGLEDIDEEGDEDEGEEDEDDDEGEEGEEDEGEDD
From the text: Immunofluorescence and proximity ligation assay. CD34^+/CD38^− cells from CML patient samples or LSK cells derived from induced leukemic mice were sorted, treated in liquid culture with the indicated drugs and cytospun onto glass slides. Slides were fixed in 3.7% formaldehyde, penneabilized with 0.05% Triton X-100, and stained with an Anti-®-catenin primary antibody (Cell signaling), a secondary goat F(ab′) anti-rabbit conjugated to Alexa Fluor 647, and the nuclear stain DAPI (Invitrogen); slides were mounted with Slowfade antifade reagent (Invitrogen). Microphotographs were obtained with a Zeiss LSM 510 confocal laser-scanning microscope with C-Apochromat 63/1.2 W objective. A minimum of three fields for each slide were acquired. For the Proximity Ligation Assay (PLA) CD34+/CD38− CML cells were treated, fixed, and permeabilized as described above. The slides were then simultaneously stained with a mix of mouse anti-PP2A (Millipore) and rabbit anti-SET (Globozyme) antibodies. The PLA procedure (Duolink; Olink Bioscience) was performed according to manufacturer instructions. An average of 20 z-stack ([…]) were captured with a Zeiss LSM 510 confocal laser-scanning microscope with C-Apochromat 63/1.2 W objective; at least three fields/slide were acquired. Three-dimensional projections were generated and positive signals/cell were calculated by ImageJ software (NIH).

[3] = test system: Lin^− SCLtTA-BCR-ABL1 cells; experiment: CFSE-mediated tracking of quiescent cells, mouse leukemic; assay type: cell-based; conditions: 2.5 μM FTY720
Experimental: as §2

[4] = test system: UCB CD34^+ cells in NSG mice; conditions: mouse, in vivo
From the text: Engraftment of Human Normal and CML Cells in Immnunodeficient NSG Mice and Effect of FTY720 on Leukemic and Normal Hematopoietic Stem/Progenitor Cells. CD34+ cells were isolated from BM of CML patients (n=3) or from umbilical cord blood specimens (UCB; n=3). Note that CML samples were from patients in blastic transformation with ≧75% of Ph+ blasts. Sublethally irradiated (260 rads) 6-8 week-old NOD.Cg-Prkds^scid IL2rg^tm1WjI/SzJ (NSG, Jackson Laboratory) mice were intrafemorally injected with 1-3×10^6 CML or 10^5 UCB CD34^+ cells/mouse. The engraftment was assessed 8 weeks post-transplant by anti-human CD45 (BD Biosciences) and anti-mouse CD45.1 flow staining of intrafemoral BM aspirates and PB from tail vein. Wunderlich et al., Leukemia 24, 1785-1788 (2010). […] Disease evolution and effect of FTY720 on HSC-enriched cell fraction (CD45^+/CD34^+/CD38^−), primitive progenitors (CD45+/CD34+), myeloid (CD45^+/CD34^+/CD33^+), B-cell (CD45^+/CD19^+) and T-cell (CD45^+/CD3^+) compartments were determined before and after 4/8 weeks of FTY720 treatment by FACS-mediated analysis of BM aspirates and/or PB cells. BCR-ABL1 transcript levels were monitored by qRT-PCR-mediated (Ipsogen) analysis of BCR-ABL1/human Abl1 ratios in total RNA samples derived from BM-aspirates of CML-engrafted animals at time of engraftment (time 0) and after 8 weeks of FTY720 treatment. […]

[5] = test system: LSK SCLtTA/BCR-ABL1 cells; experiment: CFC/replating assay, leukemic LSK cells; assay type: cell-based, mouse
Experimental: as §1

[6] = test system: CFSE^max/CD34^+ CML cells; experiment: CFSE-mediated tracking of quiescent cells, CML; assay type: cell-based, human; conditions: CFSE-labeled CD34^+ CML cells; FTY720 at 2.5 μM
Experimental: as §2

CCCCCCCCc1ccc(CCC(N)(CO)CO)cc1 [FTY720]
inhibition of LTC-ICs (CML cells): 60-70%
effect on frequency/number of normal quiescent CFSE^max cells [1]: not influenced
β-catenin transcriptional activity (LEF/TCF luciferase) [2]: markedly impaired
SET-PP2A interaction (SET-PP2A interaction): disrupts the SET-PP2A interaction
decrease in CFSE^max HSCs [3]: 70-90%
effect on human BM cell fractions [4]: did not exert noteworthy effects
numbers of circulating B-(CD19^+) and T-(CD3^+) cells [4]: reduced numbers
reduction in replating efficiency [5]: 70-90%
decrease in CFSE^max (quiescent) CML HSCs [6]: 60-75%

Source: patent US9220706B2, “Inhibition of leukemic stem cells by PP2A activating agents” (Ohio State Innovation Foundation, priority 2012, dated 2015)
